# In the supplement of paper PMC10883282:
# Structures can show the parent of a compound that is named as a salt. ± gives the standard deviation of the averaged measurements.
# Test system: A204
# Assay: relative viability vs DMSO control (72 h) (fraction); higher = more viable cells
# Summary of the method: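 Plates held 72 h at 37 °C and 5% CO2 contained sarcoma cell lines seeded in 384-well format to reach 80–90% confluence, plus 2.5 µl of serially diluted compound added after 24 h. Source plate concentrations ran from 10 mM to 0.0002 mM, with 0.1% DMSO as vehicle and a 5 µM positive control. Percent growth from ATPLite readings, averaged over up to triplicate wells, gave relative viability. Values were rescaled with 1 as full and 0 as none.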
SMILES,relative viability (0.00017 µM),relative viability (0.00051 µM),relative viability (0.00152 µM),relative viability (0.00457 µM),relative viability (0.01372 µM),relative viability (0.04115 µM),relative viability (0.1235 µM),relative viability (0.3704 µM),relative viability (1.111 µM),relative viability (3.333 µM),relative viability (10 µM)
Cc1cc(C)c(/C=C2\C(=O)Nc3ccccc32)[nH]1 [Semaxanib],1.02 ± 0.067,1.03 ± 0.021,0.964 ± 0.055,0.966 ± 0.067,0.977 ± 0.052,0.925 ± 0.075,0.883 ± 0.015,0.852 ± 0.032,0.823 ± 0.041,0.568 ± 0.043,0.33 ± 0.032
O=C(Nc1cnn2ccc(N3CCC[C@@H]3c3cc(F)ccc3F)nc12)N1CC[C@H](O)C1 [Larotrectinib],1.11 ± 0.015,1.1 ± 0.029,1.11 ± 0.037,1.06 ± 0.043,1.11 ± 0.039,1.08 ± 0.02,1.09 ± 0.046,1.11 ± 0.04,1.06 ± 0.057,1.115 ± 0.011,1.09 ± 0.016
C=CC(=O)N1CCC[C@@H](n2nc(-c3ccc(Oc4ccccc4)cc3)c3c(N)ncnc32)C1 [Ibrutinib],1.03 ± 0.019,1.06 ± 0.11,1.04 ± 0.057,1.07 ± 0.059,1.05 ± 0.048,1.09 ± 0.034,1.07 ± 0.095,1.07 ± 0.026,1.008 ± 0.0098,0.939 ± 0.13,0.525 ± 0.026
CC(C)N1CCN(Cc2cnc(-c3cc(-c4cccc5[nH]ccc45)cc4[nH]ncc34)o2)CC1 [Nemiralisib],0.981 ± 0.046,0.988 ± 0.022,0.998 ± 0.039,0.982 ± 0.015,0.97 ± 0.058,0.97 ± 0.017,0.956 ± 0.0079,0.897 ± 0.03,0.847 ± 0.053,0.631 ± 0.035,0.359 ± 0.021
CN1CCN(c2ccc3nc(-c4c(N)c5c(F)cccc5[nH]c4=O)[nH]c3c2)CC1 [Dovitinib],1.1 ± 0.031,1.06 ± 0.031,1.06 ± 0.064,1.07 ± 0.046,1.01 ± 0.052,1.03 ± 0.056,0.907 ± 0.1,0.771 ± 0.029,0.355 ± 0.054,0.0814 ± 0.011,0.0143 ± 0.0029
COc1c(OCCCN2CCOCC2)ccc2c1N=C(NC(=O)c1cnc(N)nc1)N1CCN=C21 [Copanlisib],1.05 ± 0.035,1.01 ± 0.07,0.927 ± 0.023,0.711 ± 0.055,0.583 ± 0.037,0.481 ± 0.049,0.399 ± 0.05,0.316 ± 0.027,0.268 ± 0.018,0.235 ± 0.019,0.211 ± 0.038
CNC(=O)c1ccc(-c2cnc3ncc(Cc4ccc5ncccc5c4)n3n2)cc1F [Capmatinib],1.1 ± 0.029,1.07 ± 0.019,1.08 ± 0.04,1.08 ± 0.024,1.07 ± 0.038,1.06 ± 0.015,1.1 ± 0.02,1.07 ± 0.054,1.04 ± 0.027,0.984 ± 0.054,0.787 ± 0.035
Cn1cc(-c2cc3c(N4CCN(c5ncc([C@@](C)(N)c6ccc(F)cc6)cn5)CC4)ncnn3c2)cn1 [Avapritinib],1.02 ± 0.02,1.06 ± 0.024,1.05 ± 0.023,1.05 ± 0.063,1.02 ± 0.056,0.959 ± 0.061,0.77 ± 0.019,0.507 ± 0.013,0.359 ± 0.024,0.282 ± 0.017,0.212 ± 0.012
CCCS(=O)(=O)Nc1ccc(F)c(C(=O)c2c[nH]c3ncc(-c4ccc(Cl)cc4)cc23)c1F [Vemurafenib],1.066 ± 0.009,1.09 ± 0.011,1.07 ± 0.067,1.09 ± 0.043,1.08 ± 0.047,1.07 ± 0.018,1.07 ± 0.038,1.11 ± 0.025,1.12 ± 0.027,1.02 ± 0.054,0.617 ± 0.029
CC1(C)CNc2cc(NC(=O)c3cccnc3NCc3ccncc3)ccc21 [Motesanib],0.977 ± 0.038,1.01 ± 0.046,1.01 ± 0.037,0.995 ± 0.015,0.968 ± 0.025,0.895 ± 0.045,0.76 ± 0.059,0.524 ± 0.017,0.393 ± 0.0075,0.3783 ± 0.0025,0.312 ± 0.012
C=CC(=O)Nc1cccc(Oc2nc(Nc3ccc(N4CCN(C)CC4)cc3)nc3ccsc23)c1 [Olmutinib],1.09 ± 0.028,1.05 ± 0.038,1.06 ± 0.019,1.06 ± 0.039,1.05 ± 0.031,1.05 ± 0.02,1.01 ± 0.03,1.03 ± 0.022,0.929 ± 0.054,0.568 ± 0.064,0.177 ± 0.031
COc1cc2nccc(Oc3ccc(NC(=O)Nc4cc(C)on4)c(Cl)c3)c2cc1OC [Tivozanib],1.1 ± 0.05,1.07 ± 0.048,1.09 ± 0.032,1.08 ± 0.026,0.998 ± 0.063,0.712 ± 0.021,0.504 ± 0.038,0.438 ± 0.025,0.418 ± 0.029,0.348 ± 0.0075,0.228 ± 0.02
CNC(=O)c1cc(Oc2ccc(NC(=O)Nc3ccc(Cl)c(C(F)(F)F)c3)c(F)c2)ccn1 [Regorafenib],1.06 ± 0.046,1.07 ± 0.05,1.05 ± 0.067,1.08 ± 0.051,1.079 ± 0.0072,1.05 ± 0.032,0.987 ± 0.06,0.589 ± 0.033,0.434 ± 0.0088,0.305 ± 0.033,0.219 ± 0.0053
Cc1ccc(F)c(NC(=O)Nc2ccc(-c3cccc4[nH]nc(N)c34)cc2)c1 [Linifanib],1.07 ± 0.037,1.11 ± 0.047,1.08 ± 0.037,1.073 ± 0.0063,1.06 ± 0.02,0.973 ± 0.13,0.659 ± 0.03,0.469 ± 0.066,0.435 ± 0.034,0.414 ± 0.032,0.439 ± 0.01
Cc1cnc(Nc2ccc(OCCN3CCCC3)cc2)nc1Nc1cccc(S(=O)(=O)NC(C)(C)C)c1 [Fedratinib],1.07 ± 0.066,1.07 ± 0.022,1.13 ± 0.041,1.08 ± 0.035,1.09 ± 0.017,1.02 ± 0.034,0.97 ± 0.035,0.712 ± 0.088,0.396 ± 0.056,0.13 ± 0.016,0.0146 ± 0.0016
C=CC(=O)N1CCC([C@@H]2CCNc3c(C(N)=O)c(-c4ccc(Oc5ccccc5)cc4)nn32)CC1 [Zanubrutinib],1.02 ± 0.029,0.991 ± 0.041,1 ± 0.046,1.02 ± 0.033,1.013 ± 0.0088,0.969 ± 0.019,1.02 ± 0.049,0.944 ± 0.084,0.897 ± 0.071,0.871 ± 0.023,0.764 ± 0.03
CN1CCC(COc2cnc(-c3cccc(Cn4nc(-c5cccc(C#N)c5)ccc4=O)c3)nc2)CC1 [Tepotinib],1.11 ± 0.052,1.09 ± 0.052,1.1 ± 0.044,1.09 ± 0.059,1.08 ± 0.043,1.05 ± 0.012,1.09 ± 0.047,1.05 ± 0.03,1.07 ± 0.083,1.06 ± 0.073,0.76 ± 0.054
Cc1nc(NC(=O)N2CCC[C@H]2C(N)=O)sc1-c1ccnc(C(C)(C)C(F)(F)F)c1 [Alpelisib],0.942 ± 0.046,0.988 ± 0.037,1 ± 0.02,1.02 ± 0.06,0.983 ± 0.019,0.925 ± 0.035,0.895 ± 0.038,0.7675 ± 0.0064,0.651 ± 0.027,0.557 ± 0.052,0.414 ± 0.03
CC[C@H](Nc1ncnc2[nH]cnc12)c1nc2cccc(F)c2c(=O)n1-c1ccccc1 [Idelalisib],1.08 ± 0.023,1.1 ± 0.043,1.1 ± 0.032,1.1 ± 0.046,1.07 ± 0.081,1.06 ± 0.041,1.03 ± 0.023,1.02 ± 0.021,0.973 ± 0.067,0.835 ± 0.015,0.61 ± 0.033
COc1cccc2c1C(=O)c1c(O)c3c(c(O)c1C2=O)C[C@@](O)(C(=O)CO)C[C@@H]3O[C@H]1C[C@H](N)[C@H](O)[C@H](C)O1 [Doxorubicin Hydrochloride],1.06 ± 0.015,1.07 ± 0.06,1.04 ± 0.006,0.941 ± 0.031,0.779 ± 0.1,0.56 ± 0.068,0.314 ± 0.032,0.137 ± 0.024,0.128 ± 0.0019,0.123 ± 0.014,0.118 ± 0.019
Cc1ccc(NC(=O)c2ccc(CN3CCN(C)CC3)cc2)cc1Nc1nc(-c2cccnc2)cs1 [Masitinib],1.01 ± 0.019,1.03 ± 0.039,1.06 ± 0.013,1.05 ± 0.065,1.09 ± 0.03,0.976 ± 0.033,0.772 ± 0.012,0.472 ± 0.011,0.303 ± 0.015,0.194 ± 0.015,0.0391 ± 0.0062
Cn1cnc2c(F)c(Nc3ccc(Br)cc3F)c(C(=O)NOCCO)cc21 [Binimetinib],1.04 ± 0.031,1.06 ± 0.029,1.063 ± 0.0083,1.07 ± 0.019,1.04 ± 0.015,1.02 ± 0.043,1.02 ± 0.023,0.9365 ± 0.0019,0.922 ± 0.023,0.902 ± 0.038,0.713 ± 0.023
CC(=O)Nc1cccc(-n2c(=O)n(C3CC3)c(=O)c3c(Nc4ccc(I)cc4F)n(C)c(=O)c(C)c32)c1 [Trametinib],1.08 ± 0.084,1.08 ± 0.05,1.09 ± 0.034,1.08 ± 0.035,1.04 ± 0.047,0.977 ± 0.06,0.77 ± 0.071,0.576 ± 0.024,0.544 ± 0.022,0.536 ± 0.0082,0.491 ± 0.015
Cc1cc(Nc2ncnc3ccc(NC4=NC(C)(C)CO4)cc23)ccc1Oc1ccn2ncnc2c1 [Tucatinib],1.092 ± 0.0055,1.08 ± 0.021,1.08 ± 0.024,1.1 ± 0.016,1.1 ± 0.012,1.08 ± 0.011,1.09 ± 0.025,1.02 ± 0.052,1.02 ± 0.067,0.985 ± 0.13,0.636 ± 0.034
CCN1CCN(Cc2ccc(Nc3ncc(F)c(-c4cc(F)c5nc(C)n(C(C)C)c5c4)n3)nc2)CC1 [Abemaciclib],1.05 ± 0.033,1.04 ± 0.035,1.04 ± 0.017,1.03 ± 0.034,0.976 ± 0.015,0.876 ± 0.027,0.77 ± 0.08,0.564 ± 0.023,0.417 ± 0.024,0.383 ± 0.031,0.333 ± 0.029
Cc1nc(-c2cn3c(n2)-c2ccc(-c4cnn(C(C)(C)C(N)=O)c4)cc2OCC3)n(C(C)C)n1 [Taselisib],1.05 ± 0.1,1.03 ± 0.086,0.993 ± 0.039,0.924 ± 0.061,0.852 ± 0.085,0.742 ± 0.041,0.609 ± 0.021,0.538 ± 0.028,0.435 ± 0.019,0.354 ± 0.038,0.29 ± 0.02
C[C@@H]1COCCN1c1cc(-c2ccnn2C)c2ccnc(-c3ccn[nH]3)c2n1,1.07 ± 0.068,1.05 ± 0.039,1.07 ± 0.067,1.08 ± 0.061,1.03 ± 0.037,0.903 ± 0.019,0.668 ± 0.05,0.431 ± 0.04,0.291 ± 0.015,0.231 ± 0.0066,0.222 ± 0.0062
CO[C@H]1C[C@@H]2CC[C@@H](C)[C@@](O)(O2)C(=O)C(=O)N2CCCC[C@H]2C(=O)O[C@H]([C@H](C)C[C@@H]2CC[C@@H](OP(C)(C)=O)[C@H](OC)C2)CC(=O)[C@H](C)/C=C(\C)[C@@H](O)[C@@H](OC)C(=O)[C@H](C)C[C@H](C)/C=C/C=C/C=C/1C [Ridaforolimus],0.996 ± 0.029,0.915 ± 0.019,0.783 ± 0.025,0.677 ± 0.047,0.601 ± 0.07,0.582 ± 0.036,0.576 ± 0.02,0.512 ± 0.042,0.532 ± 0.023,0.513 ± 0.043,0.499 ± 0.0088
